How the values were obtained:
[1] = Volume of distribution at steady state in ICR mouse at 1 mg/kg, iv and measured upto 24 hrs by LC-MS/MS analysis; assay type: ADME, organism-based; details: in vivo, read-out: Vdss
[2] = Volume of distribution at steady state in Beagle dog at 0.5 mg/kg, iv and measured upto 24 hrs by LC-MS/MS analysis; assay type: ADME, organism-based, Canis lupus familiaris; details: in vivo, read-out: Vdss
[3] = AUC in Beagle dog at 1 mg/kg, po and measured upto 24 hrs by LC-MS/MS analysis; assay type: ADME, organism-based, Canis lupus familiaris; design: dose 1 mg/kg, time < 24 hrs, route po; details: in vivo
Cytochrome P450 2C8 = biological target: T1, Cytochrome P450 2C8 (Homo sapiens, UniProt P10632); assay: Inhibition of CYP2C8 in human liver microsomes preincubated for 5 mins in presence substrate followed by NADPH addition and measured after 10 mins by LC-MS/MS analysis; assay type: ADME, Microsome
T1 sequence (P10632 whole entry): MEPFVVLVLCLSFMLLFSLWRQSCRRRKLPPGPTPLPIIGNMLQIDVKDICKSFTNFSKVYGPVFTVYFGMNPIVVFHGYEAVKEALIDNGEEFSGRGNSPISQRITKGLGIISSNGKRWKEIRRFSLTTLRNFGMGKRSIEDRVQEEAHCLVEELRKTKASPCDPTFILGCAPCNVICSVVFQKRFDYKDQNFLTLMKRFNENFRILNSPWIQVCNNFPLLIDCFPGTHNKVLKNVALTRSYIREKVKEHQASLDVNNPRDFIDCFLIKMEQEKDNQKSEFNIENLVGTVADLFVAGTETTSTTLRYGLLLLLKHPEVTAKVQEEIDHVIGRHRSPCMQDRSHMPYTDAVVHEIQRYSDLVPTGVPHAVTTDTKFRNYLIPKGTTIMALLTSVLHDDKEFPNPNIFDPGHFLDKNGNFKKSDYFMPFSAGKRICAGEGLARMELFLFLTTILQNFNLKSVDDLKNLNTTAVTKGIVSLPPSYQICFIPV

[4] = Downregulation of ERalpha protein expression in tumor of CB17 SCID mouse xenografted with human MCF7 cells harboring wild type ESR1 at 30 mg/kg, po qd for 3 days and measured after 6 hrs last dose by Western blot analysis relative to control; assay type: functional; details: time 3 day
[5] = Downregulation of ERalpha protein expression in tumor of CB17 SCID mouse xenografted with human MCF7 cells harboring wild type ESR1 at 30 mg/kg, po qd for 3 days and measured after 24 hrs last dose by Western blot analysis relative to control; assay type: functional; details: time 3 day
[6] = Drug concentration in plasma of CB17 SCID mouse xenografted with human MCF7 cells harboring wild type ESR1 at 30 mg/kg, po qd for 3 days and measured after 6 hrs last dose by LC-MS/MS analysis; assay type: ADME, organism-based; details: time 3 day
[7] = Drug concentration in tumor of CB17 SCID mouse xenografted with human MCF7 cells harboring wild type ESR1 at 10 mg/kg, po qd for 3 days and measured after 6 hrs last dose by LC-MS/MS analysis; assay type: ADME, organism-based, Neoplasm; details: time 3 day, read-out: Ct
[8] = Downregulation of ERalpha protein expression in tumor of CB17 SCID mouse xenografted with human MCF7 cells harboring ESR1 Y537S mutant at 30 mg/kg, po qd for 3 days and measured after 6 hrs last dose by Western blot analysis relative to control; assay type: functional; details: time 3 day
[9] = Drug concentration in plasma of CB17 SCID mouse xenografted with human MCF7 cells harboring ESR1 Y537S mutant at 10 mg/kg, po qd for 3 days and measured after 6 hrs last dose by LC-MS/MS analysis; assay type: ADME, organism-based; details: time 3 day
MCF7 = assay: Antitumor activity against human MCF7 cells harboring wild type ESR1 xenografted in CB17 SCID mouse assessed as tumor growth inhibition at 30 mg/kg, po qd for 5 weeks and measured 3 weeks post last dose; assay type: functional; details: MCF7, 840 h, read-out: TGI
[10] = Toxicity in CB17 SCID mouse xenografted with human MCF7 cells harboring ESR1 Y537S mutant assessed as body weight change at 10 mg/kg,po qd for 4 weeks; assay type: organism-based; details: in vivo, 672 h

C[C@@H]1Cc2c(ccc3[nH]ncc23)[C@@H](c2c(F)cc(N3CCC4(CCN(C(=O)CN5Cc6cc7c(cc6C5)C(=O)N(C5CCC(=O)NC5=O)C7=O)CC4)CC3)cc2F)N1CC(F)F (some centres not stated)
Vd [1]: 3.2 L/kg
Vd [2]: 5.2 L/kg
AUC at 24 h [3]: 937 ng·h/mL
IC50 (Cytochrome P450 2C8): > 10 µM
Activity [4]: 66%
Activity [5]: 73%
concentration at 72 h [6]: 1440 ng/mL
concentration at 72 h [7]: 385 ng/mL
Activity [8]: 85%
concentration at 72 h [9]: 502 ng/mL
inhibition in vivo at 30 mg/kg (MCF7): 42%
Activity [10]: Non-Toxic
